The text below walks through data of ChEMBL document CHEMBL4725273, “Structure-activity relationship study of cytotoxic neolignan derivatives using multivariate analysis and computation-aided drug design” (Bioorg Med Chem Lett, 2020).

The structures appear in SMILES notation. A value given as a limit tells only on which side of the number the result lay.

Test [1] relates to B16-F10. Description: Cytotoxicity against mouse B16-F10 cells. In kind it is functional, cell-based.
The subject of test [2] is A2058. Description: Cytotoxicity against human A2058 cells. The format is functional, cell-based.
Test [3] is described as follows: Cytotoxicity against human T75 cells. The format is cell-based.
The nature of test [4]: Selectivity index, ratio for IC50 for human T75 cells to IC50 for human A2058 cells.

Regarding `CCCOc1c(OC)cc(CCC)cc1Oc1ccc(CCC)cc1OC`, the IC50 was 79 µM in test [1], 52.2 µM in test [2] and greater than 100 µM in test [3]. Moreover, the “Ratio IC50” value in test [4] is greater than 1.9.

On to `CCCc1ccc(Oc2cc(CCC)cc(OC)c2OC)c(OC)c1`, for which the half-inhibitory concentration (IC50) in test [1], in test [2] and in test [3] was greater than 100 µM throughout.

As for `C=CCc1ccc(Oc2cc(CC=C)cc(OC)c2Oc2ccccc2)c(OC)c1`, the concentration for half-maximal inhibition (IC50) in test [1], in test [2] and in test [3] was greater than 100 µM in each case.

Consider `C=CCc1ccc(Oc2cc(C(=O)C=C)cc(OC)c2OC)c(OC)c1`, for which the concentration for half-maximal inhibition (IC50) in test [1], in test [2] and in test [3] was greater than 100 µM throughout.

Consider `C=CCc1ccc(Oc2cc(C(=O)C=C)cc(OC)c2O)c(OC)c1`, for which the half-maximal inhibitory concentration (IC50) was 82.2 µM in test [1], 85.3 µM in test [2] and greater than 100 µM in test [3]. The “Ratio IC50” value in test [4] was greater than 1.2.

With `C=CCc1ccc(Oc2cc(C(O)C=C)cc(OC)c2O)c(OC)c1` (stereo not given), the concentration for half-maximal inhibition (IC50) in test [1], in test [2] and in test [3] was greater than 100 µM throughout.

Regarding `COc1cc(C=O)ccc1Oc1cc(C=O)cc(OC)c1OC=O`, the concentration for half-maximal inhibition (IC50) in test [1] is 80.2 µM; in test [2], 61.4 µM; in test [3], greater than 100 µM. In addition, the “Ratio IC50” value in test [4] is given as greater than 1.6.

Consider `COc1cc(CC(C)O)ccc1Oc1cc(CC(C)O)cc(OC)c1OCC(C)O` (stereo not given), for which the half-inhibitory concentration (IC50) in test [1], in test [2] and in test [3] was greater than 100 µM in each case.

`C=CCc1ccc(Oc2cc(C(O)C=C)cc(OC)c2OC)c(OC)c1` (stereo not given): the figures for the 50% inhibitory concentration (IC50) in test [1], in test [2] and in test [3] were 90.3 µM, greater than 100 µM and greater than 100 µM, respectively.

Regarding `COc1cc(CC(C)=O)ccc1Oc1cc(CC(C)=O)cc(OC)c1OCC(C)=O`, the IC50 in test [1], in test [2] and in test [3] was greater than 100 µM throughout.

Turning to `COc1cc(CCCO)ccc1Oc1cc(CCCO)cc(OC)c1OCCCO`, the IC50 in test [1], in test [2] and in test [3] was greater than 100 µM in each case.

For `CCCc1ccc(Oc2cc(CCC)cc(OC)c2Oc2ccccc2)c(OC)c1`, the half-maximal inhibitory concentration (IC50) in test [1], in test [2] and in test [3] was greater than 100 µM each time.

On to `CCC(O)Oc1c(OC)cc(C(O)CC)cc1Oc1ccc(C(O)CC)cc1OC` (stereo not given), for which the IC50 in test [1], in test [2] and in test [3] was greater than 100 µM throughout.

In the case of `CCCS(=O)(=O)Nc1ccc(F)c(C(=O)c2c[nH]c3ncc(-c4ccc(Cl)cc4)cc23)c1F` [VEMURAFENIB], the IC50 in test [2] is 8.7 µM; in test [3] it was greater than 100 µM. Also, the “Ratio IC50” value in test [4] was greater than 11.5.
